Earlier results as cited in patent publication US11752097B2, “N-acetylcysteine compositions and methods” (Endo Ventures Limited, priority 2020, dated 2023).
Like-named read-outs stand apart in the source and are kept apart here.

Assays:
[1] = system: acetaminophen-overdose-induced hepatotoxicity; details: in vivo
[2] = Ni^2+
[3] = Fe^3+
[4] = pH 7.4, RT
[5] = ambient light
[6] = not given; remark: listed apart in the source
[7] = Co^2+
[8] = pH 7.4, 25° C.
[9] = Cu^2+
[10] = pH 7, 25° C.
[11] = Zn^2+
[12] = Cr^3+
[13] = Hg^2+
[14] = pH 7.4, 37° C.; reaction with Nitroxyl (HNO)
[15] = pH 7.4, 37° C.
[16] = Cd^2+
[17] = not given; remark: listed apart in the source
[18] = pH 7, RT; reaction with Superoxide anion (O2^•−)
[19] = pH 7, RT; reaction with Hydroxyl radical (^•OH)
[20] = following intravenous administration
[21] = not given; remark: listed apart in the source
[22] = Mn^2+
[23] = ingestion of 10-15 g in a single dose
[24] = 25° C. and 0.12 mol · dm^−3 ionic strength (NaClO4)
[25] = 37° C. and 0.15 mol · dm^−3 ionic strength (NaCl)
[26] = 25° C. and 0.1 mol · dm^−3 ionic strength (KNO3)

SMILES: CC(=O)N[C@H](CS)C(=O)O (single isomer, unassigned) [D-isomer of acetylcysteine]
- Activity of isomer (prevention of hepatotoxicity) [1]: not prevent hepatotoxicity
- Activity of isomer (prevention of hepatotoxicity) ([1]; listed as D-isomer): inactive

SMILES: CC(=O)N[C@@H](CS)C(=O)O [Acetylcysteine, N-acetyl-L-cysteine]
- Complex formation constant (log K) [2, 24]: 5.02
- Complex formation constant (log K) [2, 25]: 4.86
- Complex formation constant (log K) [3, 24]: 10.58
- Rate constant [4]: ~1e+07 M⁻¹ s⁻¹
- Light stability [5]: stable in ambient light
- Reaction of solutions with contact materials (contact with rubber, some metals (particularly iron and copper surfaces), and/or autoclaving): discoloration and hydrogen sulfide generation
- Reaction with contact materials (glass, plastic, aluminum, anodized aluminum, chromed metal and stainless steel): does not react
- half-life (t1/2) ([6]; following an intravenous administration): 5.7 h
- administered acetylcysteine excreted in the urine unchanged ([6]; in vivo): 20-30%
- Complex formation constant (log K) [7, 24]: 4.18
- Complex formation constant (log K) [7, 25]: 4.28
- Rate constant [8]: 0.85 ± 0.09 M⁻¹ s⁻¹
- Complex formation constant (log K) [9, 26]: 9.02
- Complex formation constant (log K) [9, 25]: 6.64
- Rate constant [10]: (1.36 ± 0.2) × 10^4 M^−1 s^−1
- Complex formation constant (log K) [11, 26]: 7.04
- Complex formation constant (log K) [11, 25]: 6.23
- Complex formation constant (log K) [12, 24]: 8.26
- Complex formation constant (log K) [13, 26]: 11.23
- Rate constant [14]: 500000 M⁻¹ s⁻¹
- Rate constant [15]: 415 ± 10 M⁻¹ s⁻¹
- Rate constant ([15]; reaction with Peroxynitrite): 415 ± 10 M⁻¹ s⁻¹
- Complex formation constant (log K) [16, 26]: 7.25
- Solubility: volume of alcohol for 1 gram ([17]; 1 gram in alcohol): 4 mL
- Solubility: volume of water for 1 gram ([17]; 1 gram in water): 5 mL
- Solubility in chloroform ([17]; chloroform): insoluble
- Solubility in ether ([17]; ether): insoluble
- Rate constant [18]: 68 ± 6 M⁻¹ s⁻¹
- Rate constant [19]: 1.36e+10 M⁻¹ s⁻¹
- Potential adverse reactions [20]: acute flushing and erythema of the skin, and anaphylactoid reactions
- Activity of isomer (prevention of hepatotoxicity) [1]: active
- redox potential ([21]; relative to Glutathione (reduced GSH/oxidized GSSG) system as a reference standard): +63 mV
- Complex formation constant (log K) [22, 25]: 3.64

SMILES: CC(=O)Nc1ccc(O)cc1 [acetaminophen, Acetaminophen]
- time to hepatic damage after overdose [23]: 2 to 5 days

SMILES: O=C(O)CN(CCN(CC(=O)O)CC(=O)O)CCN(CC(=O)O)CC(=O)O [DTPA, diethylenetriaminepentaacetic acid]
- Complex formation constant (log K) ([2]; conditions not given): 20.32
- Complex formation constant (log K) ([3]; conditions not given): 28.60
- Complex formation constant (log K) ([7]; conditions not given): 18.40
- Complex formation constant (log K) ([9]; conditions not given): 21.53
- Complex formation constant (log K) ([11]; conditions not given): 18.75
- Complex formation constant (log K) ([13]; conditions not given): 27.00
- Complex formation constant (log K) ([16]; conditions not given): 19.31
- Complex formation constant (log K) ([22]; conditions not given): 15.60

SMILES: N[C@@H](CCC(=O)N[C@@H](CS)C(=O)NCC(=O)O)C(=O)O [Glutathione]
- experimental redox potential ([21]; in the cytosol): −289 mV

SMILES: O=C(O)CN(CCN(CC(=O)O)CC(=O)O)CC(=O)O [EDTA, Ethylenediaminetetraacetic acid]
- Complex formation constant (log K) ([2]; conditions not given): 18.62
- Complex formation constant (log K) ([3]; conditions not given): 25.10
- Complex formation constant (log K) ([7]; conditions not given): 16.31
- Complex formation constant (log K) ([9]; conditions not given): 18.80
- Complex formation constant (log K) ([11]; conditions not given): 16.50
- Complex formation constant (log K) ([12]; conditions not given): 23.40
- Complex formation constant (log K) ([13]; conditions not given): 21.80
- Complex formation constant (log K) ([16]; conditions not given): 16.46
- Complex formation constant (log K) ([22]; conditions not given): 14.04
